Measurements reported in US6162828A, “Cysteine protease inhibitor” (Takeda Chemical Industries, Ltd., priority 1995, dated 2000).
Where a SMILES comes first, the peptide text is derived from it. [ ]: non-standard residue; d: D form. The star is where a group is joined. Fmoc = O=C(OCC1c2ccccc2-c2ccccc21)*; Aib = CC(C)(N)C(=O)O

Target: T1, ICE (IL-1β converting enzyme), recombinant (Homo sapiens, UniProt P29466)
T1 construct: positions corresponding to molecular weights of 25,000 and 15,800; made in house; host or cells: Sf9 insect cells (baculovirus, pVL-ICE)
T1 sequence (P29466 120-297 limits assumed): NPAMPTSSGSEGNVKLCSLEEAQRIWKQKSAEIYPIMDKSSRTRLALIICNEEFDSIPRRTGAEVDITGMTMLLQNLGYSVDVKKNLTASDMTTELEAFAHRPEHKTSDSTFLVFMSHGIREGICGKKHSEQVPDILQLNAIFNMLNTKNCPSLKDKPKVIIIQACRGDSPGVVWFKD
T1 sequence (P29466 317-404 limits assumed): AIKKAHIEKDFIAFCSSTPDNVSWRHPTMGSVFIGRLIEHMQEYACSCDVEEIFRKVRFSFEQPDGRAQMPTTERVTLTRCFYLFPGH
Assay: Determination of ICE-inhibiting activity (fluorogenic substrate Ac-Y-V-A-D-MCA)
Format: biochemical
Settings: recombinant ICE enzyme solution, 37° C. for 20 minutes, read-out: ICE-inhibiting activity in terms of IC50 value
Experimental: Two ml of the ICE expression recombinant virus suspension as prepared in Reference Example 5 was added to the insect cell Sf9 cultured in 2 1 of Sf900 medium containing 5% fetal calf serum (FCS) (1.5×10^6 cells/ml) to cause infection. Post-infection cultivation was conducted at 27° C. in a spinner flask for 4 days. Cultured cells were recovered (hereinafter all operations conducted on ice), washed 3 times with PBS (-), and suspended in a hypotonic buffer (20 mM KCl, 25 mM HEPES, pH 7.4, 5 MM MgCl2, 1 MM EDTA, 1 MM PMSF, 10 μg/ml pepstatin and leupeptine) to 10^8 cells/ml. After the suspension was kept standing on ice for 20 minutes, cells were disrupted (25 times) using a Dounce homogenizer. Disrupted cells were removed via centrifugation; ammonium sulfate was added to the supernatant to 40% saturation; the precipitate fraction was removed via centrifugation. Ammonium sulfate was further added to 80% saturation; the precipitate was recovered. The precipitate was dissolved in buffer A (20 mM KCl, 25 mM HEPES, pH 7.4, 5 mM EDTA, 2 mM DTT, 1 mM PMSF, 0.1% NP-40, 10% glycerol) and dialyzed against buffer A overnight. […]
After completion of the reaction, the fluorescence intensity of free aminomethylcoumarin was determined at a wavelength of 450 nm via excitation at a wavelength of 365 nm, using a fluorometer FCA (produced by Baxter). […]

With CC(C)[C@H](NC(=O)OCC1c2ccccc2-c2ccccc21)C(=O)NC(C)(C)C(=O)N[C@H](C=O)CC(=O)O [Example 60, Fmoc-Val-Aib-NH--CH(CHO)CH2 COOH] (Fmoc-Val-[Aib]-Asp-aldehyde) the IC50 was 19 nM.
